In PubChem BioAssay AID651769 (The Scripps Research Institute Molecular Screening Center, 2012):
The source made the active and inactive calls. No rule for the calls is given here.

Biological target: Mu-type opioid receptor (Homo sapiens) (UniProt P35372)
Test: OPRM1 activation in cells, late-stage follow-up, counter-screen for OPRM1-OPRD1 heterodimer activator project, cell-based, luminescence, dose response, set 2 (AID 651769)
Conditions: OPRM1 cell-based luminescence activation counterscreen

Sequence of Mu-type opioid receptor (Homo sapiens) (P35372 whole entry, looked up): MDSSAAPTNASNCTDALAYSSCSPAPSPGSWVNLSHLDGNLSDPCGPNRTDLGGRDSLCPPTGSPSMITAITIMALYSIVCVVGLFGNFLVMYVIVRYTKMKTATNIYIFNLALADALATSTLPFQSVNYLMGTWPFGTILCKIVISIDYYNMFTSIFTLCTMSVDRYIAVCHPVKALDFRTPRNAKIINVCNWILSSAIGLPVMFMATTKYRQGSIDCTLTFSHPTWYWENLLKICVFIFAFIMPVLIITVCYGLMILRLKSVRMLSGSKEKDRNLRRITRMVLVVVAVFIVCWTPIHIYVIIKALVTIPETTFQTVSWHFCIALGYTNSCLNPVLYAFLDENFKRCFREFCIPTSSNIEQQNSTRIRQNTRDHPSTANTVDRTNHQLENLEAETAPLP

EC50	Structure (SMILES)
> 50 µM (inactive)	O=C(O)C1CCCCC1C(=O)Nc1ccc(CN2CCCCC2)cc1 (stereo not drawn)
> 50 µM (inactive)	CCOC(=O)C1CCN(C(=O)c2ccc(N(C)C)cc2)CC1
3.44 µM	CCOC(=O)C1(CCc2ccccc2)CCN(Cc2c(O)cccc2OC)CC1
> 50 µM (inactive)	CCOC(=O)C1(CCc2ccccc2)CCN(Cc2ccncc2)CC1
> 50 µM (inactive)	CCOC(=O)C1(CCOC)CCN(Cc2ccc(N(C)c3ccccc3)cc2)CC1
> 50 µM (inactive)	CCOC(=O)C1CCN(Cc2ccc(N(C)C)cc2)CC1
> 50 µM (inactive)	CCOC(=O)C1(Cc2ccccc2C)CCCN(Cc2ccc(NC(C)=O)cc2)C1 (stereo not drawn)
> 50 µM (inactive)	CCOC(=O)C1(CC2CC2)CCN(Cc2ccc(NC(C)=O)cc2)CC1
> 50 µM (inactive)	CCOC(=O)C1CCN(CCC(=O)Nc2ccc(C)cc2)CC1
> 50 µM (inactive)	CCOC(=O)C1(CC2CC2)CCN(C(=O)c2ccc(N3CCCCC3)cc2)CC1
> 50 µM (inactive)	CCOC(=O)C1(CCc2ccccc2)CCCN(Cc2ccc(N3CCNC3=O)cc2)C1 (stereo not drawn)
> 50 µM (inactive)	CCOC(=O)C1(CCOC)CCCN(Cc2ccc(NC(C)=O)cc2)C1 (stereo not drawn)
> 50 µM (inactive)	CCOC(=O)C1(CCc2ccccc2)CCN(Cc2ccc(C(=O)OC)cc2)CC1
> 50 µM (inactive)	CCOC(=O)C1CCN(Cc2ccc(NC(C)=O)cc2)CC1
> 50 µM (inactive)	CCOC(=O)C1(Cc2ccccc2Cl)CCN(Cc2ccc(NC(C)=O)cc2)CC1
1.92 µM	CCOC(=O)C1(CCc2ccccc2)CCN(Cc2ccc(OC)cc2)CC1
> 50 µM (inactive)	CCOC(=O)C1(CCOC)CCN(Cc2ccc(NC(C)=O)cc2)CC1
> 50 µM (inactive)	CCOC(=O)C1(CCc2ccccc2)CCN(Cc2ccc(C#CC(C)(C)O)cc2)CC1
> 50 µM (inactive)	CCOC(=O)C1(CCc2ccccc2)CCN(Cc2ccc(O)cc2)CC1
> 50 µM (inactive)	CCOC(=O)C1(CCc2ccccc2)CCN(C(=O)Nc2ccc(C)cc2C)CC1
> 50 µM (inactive)	CC(=O)Nc1ccc(CN2CCCC(CO)(CCc3ccccc3)C2)cc1 (stereo not drawn)
> 50 µM (inactive)	CCOC(=O)C1(Cc2ccccc2)CCCN(Cc2ccc(NC(C)=O)cc2)C1 (stereo not drawn)
> 50 µM (inactive)	CCOC(=O)C1(CCOc2ccccc2)CCCN(Cc2ccc(NC(C)=O)cc2)C1 (stereo not drawn)
> 50 µM (inactive)	C=Cc1ccc(C(=O)N2CCC(CCCc3ccccc3)(C(=O)OCC)CC2)cc1
> 50 µM (inactive)	CCOC(=O)C1(Cc2cccc(OC)c2)CCCN(Cc2ccc(NC(C)=O)cc2)C1 (stereo not drawn)
> 50 µM (inactive)	CCOC(=O)C1(Cc2ccc(OC)cc2)CCN(C(=O)c2ccc(N(C)C)cc2)CC1
> 50 µM (inactive)	CCOC(=O)C1CCCCN1Cc1ccc(NC(C)=O)cc1 (stereo not drawn)
> 50 µM (inactive)	C=Cc1ccc(C(=O)N2CCC(CCc3ccccc3)(C(=O)OCC)CC2)cc1
